Data as given in ChEMBL document CHEMBL3885861, “Open TG-GATES”.

Organism: Rattus norvegicus
Experiment: Open TG-GATES - Regimen: Single
Assay type: toxicity, organism-based, Sprague-Dawley
Set-up: regimen Single, gender Male, age 6 weeks
Settings: in vivo, po, 300 mg/kg, route gavage, dose level Middle; for APTT / Bas / Eos / Fbg / Hb / Ht / Lym / MCH / MCHC / MCV / Mono / Neu / PT / Plat / RBC / Ret / WBC: tissue Blood; for KIDNEY_L / KIDNEY_R / KIDNEY_TOTAL: tissue Kidney; for LIVER: tissue Liver; for A/G / ALP / ALT / AST / BUN / CRE / Ca / Cl / DBIL / GLC / IP / K / LDH / Na / PL / RALB / TBIL / TC / TG / TP / gamma-GTP: tissue Plasma

CNC(=C[N+](=O)[O-])NCCSCc1ccc(CN(C)C)o1 [RANITIDINE]
TERMINAL_BW (3 h): 216.6 g
APTT (3 h): 21.3 s
Bas (3 h): 0%
Eos (3 h): 1.2%
Fbg (3 h): 224 mg/dL
Hb (3 h): 13.1 g/dL
Ht (3 h): 38.4%
Lym (3 h): 75.2%
MCH (3 h): 21.7 pg
MCHC (3 h): 34.2%
MCV (3 h): 63.4 fL
Mono (3 h): 2.4%
Neu (3 h): 18.8%
PT (3 h): 12.5 s
Plat (3 h): 125.4 x10_4/uL
RBC (3 h): 606 x10_4/ul
Ret (3 h): 6.6%
WBC (3 h): 93.9 x10_2/uL
KIDNEY_L (3 h): 1 g
KIDNEY_R (3 h): 1 g
KIDNEY_TOTAL (3 h): 2 g
LIVER (3 h): 9.9 g
A/G (3 h): 1.7
ALP (3 h): 1000.2 IU/L
ALT (3 h): 34.4 IU/L
AST (3 h): 63.8 IU/L
BUN (3 h): 10.2 mg/dL
CRE (3 h): 0.4 mg/dL
Ca (3 h): 10.7 mg/dL
Cl (3 h): 103.8 meq/L
DBIL (3 h): 0.07 mg/dL
GLC (3 h): 195.6 mg/dL
IP (3 h): 8.4 mg/dL
K (3 h): 3.8 meq/L
LDH (3 h): 141.6 IU/L
Na (3 h): 141.6 meq/L
PL (3 h): 141.2 mg/dL
RALB (3 h): 3.4 g/dL
TBIL (3 h): 0.1 mg/dL
TC (3 h): 74.2 mg/dL
TG (3 h): 48 mg/dL
TP (3 h): 5.5 g/dL
gamma-GTP (3 h): 0.8 IU/L
TERMINAL_BW (6 h): 214.7 g
APTT (6 h): 18.8 s
Bas (6 h): 0%
Eos (6 h): 1%
Fbg (6 h): 220.8 mg/dL
Hb (6 h): 13.1 g/dL
Ht (6 h): 37.8%
Lym (6 h): 72.6%
MCH (6 h): 21.6 pg
MCHC (6 h): 34.7%
MCV (6 h): 62.4 fL
Mono (6 h): 2.4%
Neu (6 h): 19.8%
PT (6 h): 12.6 s
Plat (6 h): 119.8 x10_4/uL
RBC (6 h): 605 x10_4/ul
Ret (6 h): 6.9%
WBC (6 h): 82.1 x10_2/uL
KIDNEY_L (6 h): 1 g
KIDNEY_R (6 h): 1 g
KIDNEY_TOTAL (6 h): 1.9 g
LIVER (6 h): 9.2 g
A/G (6 h): 1.6
ALP (6 h): 918.8 IU/L
ALT (6 h): 36.6 IU/L
AST (6 h): 69.6 IU/L
BUN (6 h): 8.4 mg/dL
CRE (6 h): 0.4 mg/dL
Ca (6 h): 10.4 mg/dL
Cl (6 h): 103.6 meq/L
DBIL (6 h): 0.06 mg/dL
GLC (6 h): 193.4 mg/dL
IP (6 h): 8.5 mg/dL
K (6 h): 3.8 meq/L
LDH (6 h): 111.4 IU/L
Na (6 h): 140.4 meq/L
PL (6 h): 129.2 mg/dL
RALB (6 h): 3.3 g/dL
TBIL (6 h): 0.1 mg/dL
TC (6 h): 69.2 mg/dL
TG (6 h): 43.2 mg/dL
TP (6 h): 5.4 g/dL
gamma-GTP (6 h): 1.4 IU/L
TERMINAL_BW (9 h): 211.5 g
APTT (9 h): 19.5 s
Bas (9 h): 0%
Eos (9 h): 1%
Fbg (9 h): 241 mg/dL
Hb (9 h): 13.3 g/dL
Ht (9 h): 38.2%
Lym (9 h): 67.8%
MCH (9 h): 21.6 pg
MCHC (9 h): 34.7%
MCV (9 h): 62.3 fL
Mono (9 h): 2.6%
Neu (9 h): 26%
PT (9 h): 12.7 s
Plat (9 h): 116.8 x10_4/uL
RBC (9 h): 614.4 x10_4/ul
Ret (9 h): 7.2%
WBC (9 h): 76 x10_2/uL
KIDNEY_L (9 h): 1 g
KIDNEY_R (9 h): 1 g
KIDNEY_TOTAL (9 h): 1.9 g
LIVER (9 h): 9.2 g
A/G (9 h): 1.6
ALP (9 h): 741.8 IU/L
ALT (9 h): 32 IU/L
AST (9 h): 61 IU/L
BUN (9 h): 9.8 mg/dL
CRE (9 h): 0.4 mg/dL
Ca (9 h): 10.5 mg/dL
Cl (9 h): 103.8 meq/L
DBIL (9 h): 0.074 mg/dL
GLC (9 h): 204.6 mg/dL
IP (9 h): 8.4 mg/dL
K (9 h): 3.6 meq/L
LDH (9 h): 120.6 IU/L
Na (9 h): 141.6 meq/L
PL (9 h): 143.8 mg/dL
RALB (9 h): 3.4 g/dL
TBIL (9 h): 0.1 mg/dL
TC (9 h): 76.4 mg/dL
TG (9 h): 46 mg/dL
TP (9 h): 5.6 g/dL
gamma-GTP (9 h): 1.4 IU/L
TERMINAL_BW (24 h): 230.2 g
APTT (24 h): 23.9 s
Bas (24 h): 0%
Eos (24 h): 1%
Fbg (24 h): 225.4 mg/dL
Hb (24 h): 13.6 g/dL
Ht (24 h): 38.7%
Lym (24 h): 80.6%
MCH (24 h): 22.5 pg
MCHC (24 h): 35%
MCV (24 h): 64.2 fL
Mono (24 h): 2.4%
Neu (24 h): 14%
PT (24 h): 12.3 s
Plat (24 h): 125.9 x10_4/uL
RBC (24 h): 603.2 x10_4/ul
Ret (24 h): 6.3%
WBC (24 h): 104.2 x10_2/uL
KIDNEY_L (24 h): 1 g
KIDNEY_R (24 h): 1 g
KIDNEY_TOTAL (24 h): 2 g
LIVER (24 h): 11.2 g
A/G (24 h): 1.7
ALP (24 h): 1036.4 IU/L
ALT (24 h): 33.4 IU/L
AST (24 h): 63.2 IU/L
BUN (24 h): 15.8 mg/dL
CRE (24 h): 0.4 mg/dL
Ca (24 h): 10.7 mg/dL
Cl (24 h): 102.2 meq/L
DBIL (24 h): 0.086 mg/dL
GLC (24 h): 196.6 mg/dL
IP (24 h): 7.6 mg/dL
K (24 h): 4 meq/L
LDH (24 h): 132.6 IU/L
Na (24 h): 140 meq/L
PL (24 h): 152.8 mg/dL
RALB (24 h): 3.4 g/dL
TBIL (24 h): 0.1 mg/dL
TC (24 h): 79.2 mg/dL
TG (24 h): 78.6 mg/dL
TP (24 h): 5.3 g/dL
gamma-GTP (24 h): 1 IU/L
